Test system: immature dendritic cells
Assay: Cytokine production in immature dendritic cells
Assay type: cell-based
Settings: MRX518 10^7/ml, LPS 100 ng/ml, compared to the negative control, FIGS. 4a-d
Description: A monocyte population was isolated from peripheral blood mononuclear cells (PBMCs). The monocyte cells were subsequently differentiated into immature dendritic cells. The immature dendritic cells were plated out at 200,000 cells/well and incubated with MRX518 at a final concentration of 10^7/ml, with the optional addition of LPS at a final concentration of 100 ng/ml. The negative control involved incubating the cells with RPMI media alone and positive controls incubated the cells with LPS at a final concentration of 100 ng/ml. The cytokine content of the cells was then analysed.

Substance: lipopolysaccharide [LPS]
- level of IL-6: increase
- level of TNF-α: increase

— patent US20230277602A1, “COMBINATION THERAPY FOR TREATING OR PREVENTING CANCER” (4D Pharma Research Limited, priority 2018, published 2023)
